Columns and labels:
rat [1] = details: Subchronic oral toxicity in rodents, wistar, Gavage/Intubation, dose end: 3 month, group: systemic
mouse [2] = details: Fertility (Segment I); other; Injection; Intravenous; dose end: 3 GD; group: parental; systemic / in life observation / clinical signs / motor activity
mouse [3] = details: Carcinogenicity, other, Oral, Gavage/Intubation, dose end: 106 week, group: systemic
rat [4] = details: Peri- and post-natal toxicity study (Segment III); wistar; Injection; Intravenous; dose end: 21 PND; group: parental; systemic / in life observation / body weight / body weight gain + systemic / in life observation / clinical signs / motor activity + …
mouse [5] = details: Subchronic oral toxicity in rodents, other, Gavage/Intubation, dose end: 90 day, group: systemic
rat [6] = details: Chronic toxicity, wistar, Oral, Gavage/Intubation, dose end: 6 month, group: systemic
dog [7] = details: Subchronic oral toxicity in nonrodent, beagle, Capsule, dose end: 3 month, group: systemic, systemic / clinical chemistry / alanine aminotransferase (alt/sgpt) / alanine aminotransferase (alt/sgpt)
rat [8] = details: Subchronic oral toxicity in rodents; wistar; Injection; Intravenous; dose end: 3 month; group: systemic; systemic / clinical chemistry / urea nitrogen / urea + systemic / hematology / erythrocyte (rbc) count differential / erythrocyte (rbc) + …
rat [9] = details: Multigenerational reproductive toxicity study, Crl: CD BR, Oral, Feed, dose end: 2 generation
rat [10] = details: Chronic toxicity, sprague dawley, Oral, Feed, dose end: 104 week, group: systemic
mouse [11] = details: Carcinogenicity, cd1, Oral, Feed, dose end: 104 week, group: systemic
dog [12] = details: Subchronic oral toxicity in nonrodent, beagle, Capsule, dose end: 102 day, group: systemic
dog [13] = details: Chronic toxicity, beagle, Oral, Feed, dose end: 52 week, group: systemic
rat [14] = details: Combined chronic toxicity/carcinogenicity, fischer, Oral, Feed, dose end: 129 week, group: systemic
rat [15] = details: Chronic toxicity, fischer, Oral, Feed, dose end: 104 week, group: systemic
rat [16] = details: Subchronic oral toxicity in rodents, fischer, Feed, dose end: 90 day, group: systemic, systemic / organ weight / kidney / absolute + systemic / organ weight / kidney / relative to body weight + systemic / pathology gross / …
rabbit = details: Prenatal developmental toxicity study, new zealand white, Oral, Gavage/Intubation, dose end: 19 GD, group: maternal
rat [17] = details: Multigenerational reproductive toxicity study, sprague dawley, Oral, Feed, dose end: 2 generation
mouse [18] = details: Subchronic oral toxicity in rodents, cd1, Feed, dose end: 90 day, group: systemic
[19] = systemic / clinical chemistry / alkaline phosphatase (alp/alk) / alkaline phosphatase (alp/alk) + systemic / clinical chemistry / calcium / …
[20] = systemic / clinical chemistry / glucose / glucose + systemic / hematology / hemoglobin (hgb) / hemoglobin (hgb) + systemic / hematology / …
[21] = systemic / hematology / erythrocyte (rbc) count differential / erythrocyte (rbc) + systemic / hematology / hematocrit (hct) / hematocrit (…
[22] = systemic / hematology / leukocyte (wbc) count differential / leukocyte (wbc) + systemic / organ weight / kidney / relative to body weight
[23] = systemic / organ weight / liver / relative to body weight + systemic / organ weight / kidney / absolute
[24] = systemic / hematology / reticulocyte / reticulocyte + systemic / in life observation / clinical signs / teeth whitening + systemic / in life…
[25] = systemic / in life observation / clinical signs / tooth-broken
[26] = group: offspring, systemic / pathology gross / stomach / irregular surface + systemic / pathology gross / stomach / thickened + systemic / pathology …
[27] = group: parental, systemic / organ weight / kidney / relative to body weight + systemic / pathology gross / stomach / irregular surface + systemic / pathology…
[28] = systemic / clinical chemistry / potassium / potassium
[29] = systemic / clinical chemistry / potassium / potassium + systemic / clinical chemistry / albumin / albumin + systemic / clinical chemistry / …
[30] = systemic / pathology microscopic / kidney / hyperplasia + systemic / pathology microscopic / stomach / carcinoma + systemic / pathology …
[31] = systemic / pathology gross / stomach / adhesions + systemic / pathology gross / stomach / thickened + systemic / pathology microscopic / …
[32] = systemic / pathology microscopic / stomach / congestion + systemic / pathology microscopic / stomach / mineralization + systemic / clinical …
[33] = systemic / pathology microscopic / kidney / adenoma + systemic / pathology microscopic / kidney / carcinoma
[34] = systemic / pathology microscopic / kidney / adenoma + systemic / pathology microscopic / kidney / carcinoma + systemic / pathology …
[35] = systemic / pathology microscopic / kidney / hyperplasia + systemic / pathology microscopic / kidney / karyomegaly + systemic / in life …
[36] = systemic / pathology microscopic / kidney / karyomegaly
[37] = systemic / in life observation / clinical signs / anorexia + systemic / in life observation / clinical signs / no feces
[38] = group: offspring, systemic / in life observation / body weight / offspring (pup) weight
[39] = group: parental, systemic / pathology microscopic / stomach / hyperkeratosis + systemic / pathology microscopic / stomach / hyperplasia + systemic / …
[40] = systemic / pathology gross / urinary bladder / lesion(s) (nos)

Structure (SMILES): CC(C)c1ccc(C(=O)N=C(N)N)cc1S(C)(=O)=O.CS(=O)(=O)O [Cariporide mesylate]
- LOAEL (rat [1]; [19]): > 1000 mg/kg/day
- NOAEL (rat [1]; [19]): ≥ 1000 mg/kg/day
- LEL (rat [1]; [20]): 400 mg/kg/day
- NEL (rat [1]; [20]): < 400 mg/kg/day
- LEL (mouse [2]): 150 mg/kg/day
- LOAEL (mouse [2]): > 150 mg/kg/day
- NEL (mouse [2]): 50 mg/kg/day
- NOAEL (mouse [2]): ≥ 150 mg/kg/day
- LOAEL (mouse [3]; [21]): > 500 mg/kg/day
- NOAEL (mouse [3]; [21]): ≥ 500 mg/kg/day
- LEL (mouse [3]; [22]): 50 mg/kg/day
- NEL (mouse [3]; [22]): < 50 mg/kg/day
- LEL (rat [4]): 125 mg/kg/day
- LOAEL (rat [4]): > 125 mg/kg/day
- NEL (rat [4]): 5 mg/kg/day
- NOAEL (rat [4]): ≥ 125 mg/kg/day
- NOAEL (mouse [5]; systemic / organ weight / liver / relative to body weight + systemic / in life observation / clinical signs / abnormal gait + systemic / in …): 250 mg/kg/day
- LEL (mouse [5]; [23]): 250 mg/kg/day
- LOAEL (mouse [5]; [23]): 500 mg/kg/day
- NEL (mouse [5]; [23]): < 250 mg/kg/day
- LOAEL (rat [6]; [24]): 25 mg/kg/day
- NOAEL (rat [6]; [24]): 5 mg/kg/day
- LEL (rat [6]; [25]): 5 mg/kg/day
- NEL (rat [6]; [25]): < 5 mg/kg/day
- LEL (dog [7]): 8 mg/kg/day
- LOAEL (dog [7]): > 20 mg/kg/day
- NEL (dog [7]): 3.2 mg/kg/day
- NOAEL (dog [7]): ≥ 20 mg/kg/day
- LEL (rat [8]): 125 mg/kg/day
- LOAEL (rat [8]): 125 mg/kg/day
- NEL (rat [8]): 25 mg/kg/day
- NOAEL (rat [8]): 25 mg/kg/day

Structure (SMILES): N#Cc1c(Cl)c(Cl)c(Cl)c(C#N)c1Cl [Chlorothalonil]
- LEL (rat [9]; [26]): 32.9 mg/kg/day
- LOAEL (rat [9]; [26]): 32.9 mg/kg/day
- NEL (rat [9]; [26]): < 32.9 mg/kg/day
- NOAEL (rat [9]; [26]): < 32.9 mg/kg/day
- LEL (rat [9]; [27]): 28.6 mg/kg/day
- LOAEL (rat [9]; [27]): 28.6 mg/kg/day
- NEL (rat [9]; [27]): < 28.6 mg/kg/day
- NOAEL (rat [9]; [27]): < 28.6 mg/kg/day
- LEL (rat [10]; [28]): 0.5 mg/kg/day
- NEL (rat [10]; [28]): < 0.5 mg/kg/day
- LOAEL (rat [10]; [29]): 10 mg/kg/day
- NOAEL (rat [10]; [29]): 3 mg/kg/day
- LOAEL (mouse [11]; systemic / pathology microscopic / kidney / hyperplasia): 26.2 mg/kg/day
- NEL (mouse [11]; [30]): 1.5 mg/kg/day
- NOAEL (mouse [11]; [30]): 6 mg/kg/day
- LEL (mouse [11]; systemic / pathology microscopic / stomach / hyperkeratosis + systemic / pathology microscopic / stomach / hyperplasia): 6 mg/kg/day
- LEL (dog [12]; systemic / clinical chemistry / glucose / glucose): 15 mg/kg/day
- LOAEL (dog [12]; systemic / clinical chemistry / glucose / glucose + systemic / organ weight / liver / absolute + systemic / urinalysis / ph / ph): 50 mg/kg/day
- NOAEL (dog [12]; systemic / clinical chemistry / glucose / glucose + systemic / organ weight / liver / absolute + systemic / urinalysis / ph / ph + systemic…): 15 mg/kg/day
- NEL (dog [12]; systemic / clinical chemistry / glucose / glucose + systemic / urinalysis / ph / ph + systemic / hematology / erythrocyte (rbc) count …): 5 mg/kg/day
- LOAEL (dog [13]; [31]): 43.3 mg/kg/day
- NOAEL (dog [13]; [31]): 5.1 mg/kg/day
- LEL (dog [13]; [32]): 5.1 mg/kg/day
- NEL (dog [13]; [32]): < 5.1 mg/kg/day
- LOAEL (rat [14]; [33]): 40 mg/kg/day
- NOAEL (rat [14]; [33]): < 40 mg/kg/day
- LEL (rat [14]; [34]): 40 mg/kg/day
- NEL (rat [14]; [34]): < 40 mg/kg/day
- LOAEL (rat [15]; [35]): 175 mg/kg/day
- NOAEL (rat [15]; [35]): 15 mg/kg/day
- LEL (rat [15]; [36]): 1.5 mg/kg/day
- NEL (rat [15]; [36]): < 1.5 mg/kg/day
- LEL (rat [16]): 175 mg/kg/day
- LOAEL (rat [16]): 175 mg/kg/day
- NEL (rat [16]): < 175 mg/kg/day
- NOAEL (rat [16]): < 175 mg/kg/day
- LOAEL (rabbit; systemic / in life observation / body weight / body weight gain + systemic / in life observation / food consumption / food consumption): 500 mg/kg/day
- NOAEL (rabbit; systemic / in life observation / body weight / body weight gain + systemic / in life observation / food consumption / food consumption + …): 250 mg/kg/day
- LEL (rabbit; [37]): 250 mg/kg/day
- NEL (rabbit; [37]): < 250 mg/kg/day
- LEL (rat [17]; [38]): 38 mg/kg/day
- LOAEL (rat [17]; [38]): 234 mg/kg/day
- NEL (rat [17]; [38]): < 38 mg/kg/day
- NOAEL (rat [17]; [38]): 115 mg/kg/day
- LEL (rat [17]; [39]): 38 mg/kg/day
- LOAEL (rat [17]; [39]): 38 mg/kg/day
- NEL (rat [17]; [39]): < 38 mg/kg/day
- NOAEL (rat [17]; [39]): < 38 mg/kg/day
- LEL (mouse [18]; [40]): 1.12 mg/kg/day
- NEL (mouse [18]; [40]): < 1.12 mg/kg/day
- NOAEL (mouse [18]; systemic / pathology microscopic / stomach / hyperkeratosis + systemic / pathology microscopic / stomach / hyperplasia + systemic / clinical…): 2.25 mg/kg/day
- LOAEL (mouse [18]; systemic / pathology microscopic / stomach / hyperkeratosis + systemic / pathology microscopic / stomach / hyperplasia + systemic / …): 7.5 mg/kg/day

Reference: EPA's ToxRefDB 2
